In PubChem BioAssay AID330 (DTP/NCI, 2004):
“And” between values parts separate entries of the source, which are not always exact repeats. Identical values can stand only once. Inconclusive results and toxic doses are left out. The calls were made as follows: active = survival T/C of 150% or more; inactive = T/C below 125% in these data.

Tested on: P388 leukemia ip, CD2F1 mice, survival T/C
Test: NCI In Vivo Anticancer Drug Screen. Data for tumor model P388 Leukemia (intraperitoneal) in CD2F1 (CDF1) mice
Details: endpoint: median survival time, higher = longer survival
Procedure, shortened: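 Mice carrying the transplanted tumor received test compound or vehicle. Survival was recorded in each group, and the value is the treated-group measurement divided by that of the vehicle-treated control group.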

[1] = dose: 25.0 mg/kg/injection, schedule: Q01DX009 (ip), vehicle: saline with Tween-80
[2] = dose: 50.0 mg/kg/injection, schedule: Q01DX009 (ip), vehicle: saline with Tween-80
[3] = dose: 100.0 mg/kg/injection, schedule: Q01DX009 (ip), vehicle: saline with Tween-80
[4] = dose: 12.5 mg/kg/injection, schedule: Q01DX009 (ip), vehicle: distilled water + Tween-80
[5] = dose: 25.0 mg/kg/injection, schedule: Q01DX009 (ip), vehicle: distilled water + Tween-80
[6] = dose: 50.0 mg/kg/injection, schedule: Q01DX009 (ip), vehicle: distilled water + Tween-80
[7] = dose: 100.0 mg/kg/injection, schedule: Q01DX009 (ip), vehicle: distilled water + Tween-80
[8] = dose: 100.0 mg/kg/injection, schedule: Q04DX003 (ip), vehicle: saline with Tween-80

Measured: T/C

Cc1ccc2c(c1)-c1[nH]c3ccccc3c1CS2
inactive: dose: 100.0 mg/kg/injection, schedule: Q04DX003 (ip), vehicle: Klucel (hydroxypropylcellulose) (HPC) 104 % of control | dose: 200.0 mg/kg/injection, schedule: Q04DX003 (ip), vehicle: Klucel (hydroxypropylcellulose) (HPC) 115 % of control

O=[N+]([O-])c1ccc(-c2nc(CN3CCOCC3)cs2)s1
inactive: [1] 98 % of control | [2] 103 % of control | [3] 106 % of control

Cc1ccccc1CC(C)c1ccccc1 (stereo unspecified)
inactive: [2] 100 % of control | [3] 123 % of control

O=C(N/N=C/c1ccccn1)N/N=C/c1ccccn1
inactive: [4] 102 % of control | [5] 103 % of control | [6] 113 % of control | [7] 104 % of control

C(=C\C1CC2CCCN2O1)/c1ccccc1 (stereo unspecified)
inactive: [1] 90 % of control | [2] 105 % of control | [3] 100 % of control | dose: 200.0 mg/kg/injection, schedule: Q01DX009 (ip), vehicle: saline with Tween-80 107 % of control

O=C1CC2(C(=O)N1CN1CCN(c3ccc(F)cc3)CC1)c1ccccc1-c1ccccc12 (tested in a mixture with another compound)
inactive: [8] 90 % of control

C=CCn1c(-c2cccc(O)c2)n[nH]c1=S
inactive: [1] 104 % of control | [2] 115 % of control | [3] 96 % of control

CN1C(=O)N(C)C2(C=Cc3ccccc3O2)N(C)C1=O
inactive: dose: 50.0 mg/kg/injection, schedule: Q04DX003 (ip), vehicle: saline with Tween-80 92 % of control | [8] 98 % of control | dose: 200.0 mg/kg/injection, schedule: Q04DX003 (ip), vehicle: saline with Tween-80 92 % of control

C1CNCCNCCNCCN1
inactive: dose: 12.5 mg/kg/injection, schedule: Q01DX009 (ip), vehicle: water 101 % of control | dose: 25.0 mg/kg/injection, schedule: Q01DX009 (ip), vehicle: water 96 % of control | dose: 50.0 mg/kg/injection, schedule: Q01DX009 (ip), vehicle: water 100 % of control | dose: 100.0 mg/kg/injection, schedule: Q01DX009 (ip), vehicle: water 101 % of control

CC1=C(CCCCCCCCCCCCCCC(C)O)C(=O)OC1=O (stereo unspecified)
inactive: dose: 1.56 mg/kg/injection, schedule: Q01DX005 (ip), vehicle: Klucel (hydroxypropylcellulose) (HPC) 108 % of control | dose: 3.12 mg/kg/injection, schedule: Q01DX005 (ip), vehicle: Klucel (hydroxypropylcellulose) (HPC) 108 % of control | dose: 6.25 mg/kg/injection, schedule: Q01DX005 (ip), vehicle: Klucel (hydroxypropylcellulose) (HPC) 99 % of control | dose: 12.5 mg/kg/injection, schedule: Q01DX005 (ip), vehicle: Klucel (hydroxypropylcellulose) (HPC) 99 % of control | dose: 50.0 mg/kg/injection, schedule: Q01DX005 (ip), vehicle: Klucel (hydroxypropylcellulose) (HPC) 89 % of control | dose: 100.0 mg/kg/injection, schedule: Q01DX005 (ip), vehicle: Klucel (hydroxypropylcellulose) (HPC) 92 % of control | dose: 200.0 mg/kg/injection, schedule: Q01DX005 (ip), vehicle: Klucel (hydroxypropylcellulose) (HPC) 101 % of control | dose: 400.0 mg/kg/injection, schedule: Q01DX005 (ip), vehicle: Klucel (hydroxypropylcellulose) (HPC) 87 % of control

O=c1c2ccccc2nnn1OCc1ccccc1
inactive: [4] 100 % of control | [5] 103 % of control | [6] 97 % of control | [7] 101 % of control | dose: 200.0 mg/kg/injection, schedule: Q01DX009 (ip), vehicle: distilled water + Tween-80 103 % of control

O=[N+]([O-])c1ccc(OP(=O)(Oc2ccc([N+](=O)[O-])cc2)N(CCCl)CCCl)cc1
inactive: dose: 18.8 mg/kg/injection, schedule: Q01DX001 (ip), vehicle: other 108 % of control | dose: 37.5 mg/kg/injection, schedule: Q01DX001 (ip), vehicle: other 112 % of control | dose: 75.0 mg/kg/injection, schedule: Q01DX001 (ip), vehicle: other 113 % of control | dose: 150.0 mg/kg/injection, schedule: Q01DX001 (ip), vehicle: other 115 % of control | dose: 300.0 mg/kg/injection, schedule: Q01DX001 (ip), vehicle: other 99 % of control

O=C(O)c1ccc2c(c1Sc1ccccc1)C(=O)c1ccccc1C2=O
inactive: dose: 60.0 mg/kg/injection, schedule: Q01DX005 (ip), vehicle: Klucel (hydroxypropylcellulose) (HPC) 110 % of control | dose: 120.0 mg/kg/injection, schedule: Q01DX005 (ip), vehicle: Klucel (hydroxypropylcellulose) (HPC) 107 % of control

CCCCCN(C)c1ncnc2[nH]ncc12
inactive: dose: 25.0 mg/kg/injection, schedule: Q01DX005 (ip), vehicle: saline 94 % of control | dose: 50.0 mg/kg/injection, schedule: Q01DX005 (ip), vehicle: saline 95 % of control | dose: 100.0 mg/kg/injection, schedule: Q01DX005 (ip), vehicle: saline 100 % of control

CC/C(=C(\c1ccccc1)c1ccc(OCCN(C)C)cc1)c1ccccc1
inactive: dose: 0.78 mg/kg/injection, schedule: Q01DX009 (ip), vehicle: suspension in saline 94 % of control | dose: 1.56 mg/kg/injection, schedule: Q01DX009 (ip), vehicle: suspension in saline 94 % of control | dose: 3.12 mg/kg/injection, schedule: Q01DX009 (ip), vehicle: suspension in saline 94 % of control | dose: 6.25 mg/kg/injection, schedule: Q01DX009 (ip), vehicle: suspension in saline 98 % of control | dose: 12.5 mg/kg/injection, schedule: Q01DX009 (ip), vehicle: Klucel (hydroxypropylcellulose) (HPC) 105 % of control | dose: 12.5 mg/kg/injection, schedule: Q01DX009 (ip), vehicle: suspension in saline 100 % of control | dose: 25.0 mg/kg/injection, schedule: Q01DX009 (ip), vehicle: Klucel (hydroxypropylcellulose) (HPC) 102 % of control | dose: 25.0 mg/kg/injection, schedule: Q01DX009 (ip), vehicle: suspension in saline 104 % of control | dose: 50.0 mg/kg/injection, schedule: Q01DX004 (ip), vehicle: saline with Tween-80 92 % of control | dose: 50.0 mg/kg/injection, schedule: Q01DX009 (ip), vehicle: Klucel (hydroxypropylcellulose) (HPC) 110 % of control | dose: 50.0 mg/kg/injection, schedule: Q01DX009 (ip), vehicle: suspension in saline 101 % of control | dose: 100.0 mg/kg/injection, schedule: Q01DX004 (ip), vehicle: saline with Tween-80 82 % of control | dose: 100.0 mg/kg/injection, schedule: Q01DX009 (ip), vehicle: Klucel (hydroxypropylcellulose) (HPC) 117 % of control | dose: 100.0 mg/kg/injection, schedule: Q01DX009 (ip), vehicle: suspension in saline 92 % of control

COCCn1c(N)c(C(=S)Nc2ccccc2)c(=O)[nH]c1=O
inactive: dose: 50.0 mg/kg/injection, schedule: Q01DX009 (ip), vehicle: saline 101 % of control | dose: 100.0 mg/kg/injection, schedule: Q01DX009 (ip), vehicle: saline 104 % of control | dose: 200.0 mg/kg/injection, schedule: Q01DX009 (ip), vehicle: saline 105 % of control

NC(=O)/C=C/C(=O)c1c(Cl)cccc1Cl
inactive: dose: 1.56 mg/kg/injection, schedule: Q01DX009 (ip), vehicle: saline with Tween-80 113 % of control | dose: 3.13 mg/kg/injection, schedule: Q01DX009 (ip), vehicle: saline with Tween-80 111 % of control | dose: 6.25 mg/kg/injection, schedule: Q01DX009 (ip), vehicle: saline with Tween-80 94 % of control | dose: 12.5 mg/kg/injection, schedule: Q01DX009 (ip), vehicle: saline with Tween-80 86 % of control and 87 % of control

CCc1cc(/C=C2/OC(=O)c3ccccc32)cc(CC)c1O
inactive: dose: 100.0 mg/kg/injection, schedule: Q04DX002 (ip), vehicle: saline 101 % of control | dose: 200.0 mg/kg/injection, schedule: Q04DX002 (ip), vehicle: saline 100 % of control | dose: 400.0 mg/kg/injection, schedule: Q04DX002 (ip), vehicle: saline 100 % of control

O=C1CC2(CC(=O)NC2=O)C(=O)N1
inactive: dose: 100.0 mg/kg/injection, schedule: Q01DX001 (ip), vehicle: saline 100 % of control | dose: 200.0 mg/kg/injection, schedule: Q01DX001 (ip), vehicle: saline 97 % of control | dose: 400.0 mg/kg/injection, schedule: Q01DX001 (ip), vehicle: saline 92 % of control

CCCCCCCNC1CCCc2cc(OC)ccc21 (stereo unspecified)
inactive: dose: 50.0 mg/kg/injection, schedule: Q04DX003 (ip), vehicle: saline 113 % of control | dose: 100.0 mg/kg/injection, schedule: Q04DX003 (ip), vehicle: saline 99 % of control

COC1(OC)C2(Cl)C(Cl)=C(Cl)C1(Cl)C1CCCCCC12 (stereo unspecified)
inactive: dose: 60.0 mg/kg/injection, schedule: Q01DX005 (ip), vehicle: saline with Tween-80 97 % of control | dose: 120.0 mg/kg/injection, schedule: Q01DX005 (ip), vehicle: saline with Tween-80 97 % of control | dose: 240.0 mg/kg/injection, schedule: Q01DX005 (ip), vehicle: saline with Tween-80 101 % of control
